In patent EP3436445B1, “HISTONE DEMETHYLASE INHIBITORS” (Celgene Quanticel Research, Inc., priority 2016, dated 2017):

Assays:
Jarid1B = biological target: T1, Jarid1B (Homo sapiens, UniProt Q9UGL1); test: Jarid1B in vitro enzyme inhibition assay (TR-FRET); assay type: biochemical; details: Table 5; 0.8 nM Jarid1B, H3K4me3-biotin labeled peptide; read-out: JARID1B IC5
T1 construct: purchased BPS Bioscience (or custom made by MolecularThroughput) 50121
T1 sequence (Q9UGL1 2-751): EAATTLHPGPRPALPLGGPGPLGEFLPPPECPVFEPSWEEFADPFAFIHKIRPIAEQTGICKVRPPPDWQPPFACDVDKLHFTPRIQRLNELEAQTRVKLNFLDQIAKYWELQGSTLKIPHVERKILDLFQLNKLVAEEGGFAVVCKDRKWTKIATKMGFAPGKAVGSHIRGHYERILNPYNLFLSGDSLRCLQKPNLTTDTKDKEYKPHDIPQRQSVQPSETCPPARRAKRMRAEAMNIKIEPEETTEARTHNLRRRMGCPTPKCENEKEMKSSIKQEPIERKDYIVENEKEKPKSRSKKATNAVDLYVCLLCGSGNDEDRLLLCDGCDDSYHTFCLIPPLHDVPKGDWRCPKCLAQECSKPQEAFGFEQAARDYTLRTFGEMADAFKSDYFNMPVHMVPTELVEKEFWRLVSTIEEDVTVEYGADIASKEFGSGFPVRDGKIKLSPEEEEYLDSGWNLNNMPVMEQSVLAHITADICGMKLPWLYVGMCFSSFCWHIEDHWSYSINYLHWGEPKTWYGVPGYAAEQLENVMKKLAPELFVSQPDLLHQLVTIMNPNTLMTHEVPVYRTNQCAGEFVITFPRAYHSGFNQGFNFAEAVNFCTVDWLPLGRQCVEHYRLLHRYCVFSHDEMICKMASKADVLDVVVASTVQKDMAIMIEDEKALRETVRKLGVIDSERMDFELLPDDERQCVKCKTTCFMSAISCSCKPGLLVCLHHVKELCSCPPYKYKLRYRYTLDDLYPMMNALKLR
Excerpt: (§1) This assay determines the ability of a test compound to inhibit Jarid1B, JMJD2C and JMJD3 demethylase activity. Baculovirus expressed Jarid1B (GenBank Accession #NM-006618, AA 2-751) was purchased from BPS Bioscience (Cat #50121) or custom made by MolecularThroughput. Baculovirus expressed JMJD2C (GenBank Accession #BC143571, AA 2-372) was purchased from BPS Bioscience (Cat#50105). Baculovirus expressed JMJD3 (GenBank Accession #NM-001080424, AA1043-end) was purchased from BPS Bioscience (Cat#50115).
The ability of test compounds to inhibit the activity of Jarid1B was determined in 384-well plate format under the following reaction conditions: 0.8 nM Jarid1B, 300 nM H3K4me3-biotin labeled peptide (Anaspec cat #64357), 2 µM alpha-ketoglutaric acid in assay buffer of 50 mM HEPES, pH7.3, 0.005% Brij35, 0.5 mM TCEP, 0.2 mg/ml BSA, 50 µM sodium L-ascorbate, and 2 µM ammonium iron(II) sulfate. Reaction product was determined quantitatively by TR-FRET after the addition of detection reagent Phycolink Streptavidin-allophycocyanin (Prozyme) and Europium-anti-mono-or di-methylated histone H3 lysine 4 (H3K4me1-2) antibody (PerkinElmer) in the presence of 5 mM EDTA in LANCE detection buffer (PerkinElmer) at a final concentration of 25 nM and 1 nM, respectively.
(§2) The assay reaction was initiated by the following: 2 µl of the mixture of 900 nM H3K4me3-biotin labeled peptide and 6 µM alpha-ketoglutaric acid with 2 µl of 11-point serial diluted inhibitor in 3% DMSO was added to each well of the plate, followed by the addition of 2 µl of 2.4 nM Jarid1B to initiate the reaction. The reaction mixture was incubated at room temperature for 30 minutes, and terminated by the addition of 6 µl of 5 mM EDTA in LANCE detection buffer containing 50 nM Phycolink Streptavidin-allophycocyanin and 2 nM Europium-anti-H3K4me1-2 antibody. Plates were read by EnVisionMultilabel Reader in TR-FRET mode (excitation at 320 nm, emission at 615 nm and 665 nm) after 1 hour incubation at room temperature. A ratio was calculated (665/615) for each well and fitted to determine inhibition constant (IC50).

JMJD2C = biological target: T2, JMJD2C (Homo sapiens, UniProt Q9H3R0); test: JMJD2C in vitro enzyme inhibition assay (TR-FRET); assay type: biochemical; details: Table 5; 0.3 nM JMJD2C, H3K9me3-biotin labeled peptide
T2 construct: purchased BPS Bioscience 50105
T2 sequence (Q9H3R0 2-372): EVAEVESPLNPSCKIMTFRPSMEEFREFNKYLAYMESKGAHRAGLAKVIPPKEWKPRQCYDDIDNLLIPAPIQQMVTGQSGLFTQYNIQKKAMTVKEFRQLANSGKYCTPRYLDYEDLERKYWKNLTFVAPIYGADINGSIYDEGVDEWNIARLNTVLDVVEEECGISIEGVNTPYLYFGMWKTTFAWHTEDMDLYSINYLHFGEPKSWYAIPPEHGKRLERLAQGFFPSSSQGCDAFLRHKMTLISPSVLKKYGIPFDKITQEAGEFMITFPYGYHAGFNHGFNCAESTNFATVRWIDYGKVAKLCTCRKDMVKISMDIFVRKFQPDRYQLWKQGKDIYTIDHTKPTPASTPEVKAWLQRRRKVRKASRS
Excerpt: as §1
The ability of test compounds to inhibit the activity of JMJD2C was determined in 384-well plate format under the following reaction conditions: 0.3 nM JMJD2C, 300 nM H3K9me3-biotin labeled peptide (Anaspec cat #64360), 2 µM alpha-ketoglutaric acid in assay buffer of 50 mM HEPES, pH7.3, 0.005% Brij35, 0.5 mM TCEP, 0.2 mg/ml BSA, 50 µM sodium L-ascorbate, and 2 µM ammonium iron(II) sulfate. Reaction product was determined quantitatively by TR-FRET after the addition of detection reagent Phycolink Streptavidin-allophycocyanin (Prozyme) and Europium-anti-di-methylated histone H3 lysine 9 (H3K9me2) antibody (PerkinElmer) in the presence of 5 mM EDTA in LANCE detection buffer (PerkinElmer) at a final concentration of 50 nM and 1 nM, respectively.
as §2, with “nM H3K9me3-biotin” for “nM H3K4me3-biotin”, “DMSO were” for “DMSO was”, “of 0.9” for “of 2.4”, “nM JMJD2C” for “nM Jarid1B”, “containing 100” for “containing 50”, “nM Europium-anti-H3K9me2” for “nM Europium-anti-H3K4me1-2”

Row | IC50 (Jarid1B) | IC50 (JMJD2C) | SMILES
1 | ≤ 100 nM | > 10 µM | FC(F)(F)c1[nH]nnc1-c1ccnc(-c2cn(CCc3ccccc3Cl)cn2)c1 [Example 57]
2 | ≤ 100 nM | > 10 µM | FC(F)(F)c1[nH]nnc1-c1ccnc(-c2cn(CC3CCCc4ccccc43)cn2)c1 (stereo not drawn) [Example 58, 2-{1-[(1,2,3,4-tetrahydronaphthalen-1-yl)methyl]-1H-imidazol-4-yl}-4-[5-(trifluoromethyl)-1H-1,2,3-triazol-4-yl]pyridine]
3 | ≤ 100 nM | 1 to 10 µM | FC(F)(F)c1ccccc1CCn1cnc(-c2cc(-c3nn[nH]c3C(F)(F)F)ccn2)c1 [Example 60, 4-[5-(trifluoromethyl)-1H-1,2,3-triazol-4-yl]-2-(1-{2-[2-(trifluoromethyl)phenyl]ethyl}-1H-imidazol-4-yl)pyridine]
4 | 100 to 1000 nM | > 10 µM | Fc1ccc(Cn2cnc(-c3cc(-c4nn[nH]c4C(F)(F)F)ccn3)c2)cc1 [Example 61, 2-{1-[(4-fluorophenyl)methyl]-1H-imidazol-4-yl}-4-[5-(trifluoromethyl)-1H-1,2,3-triazol-4-yl]pyridine]
5 | 100 to 1000 nM | > 10 µM | FC(F)(F)c1[nH]nnc1-c1ccnc(-c2cn(Cc3ccc(Cl)cc3)cn2)c1 [Example 63, 2-{1-[(4-chlorophenyl)methyl]-1H-imidazol-4-yl}-4-[5-(trifluoromethyl)-1H-1,2,3-triazol-4-yl]pyridine]
6 | 100 to 1000 nM | > 10 µM | FC(F)(F)c1[nH]nnc1-c1ccnc(-c2cn(Cc3ccccc3Cl)cn2)c1 [Example 64, 2-{1-[(2-chlorophenyl)methyl]-1H-imidazol-4-yl}-4-[5-(trifluoromethyl)-1H-1,2,3-triazol-4-yl]pyridine]
7 | > 10000 nM | > 10 µM | Cc1ccc(Cn2cnc(-c3cc(-c4nn[nH]c4C(F)(F)F)ccn3)c2)cc1 [Example 65, 2-{1-[(4-methylphenyl)methyl]-1H-imidazol-4-yl}-4-[5-(trifluoromethyl)-1H-1,2,3-triazol-4-yl]pyridine]
8 | 100 to 1000 nM | > 10 µM | Cc1ccccc1Cn1cnc(-c2cc(-c3nn[nH]c3C(F)(F)F)ccn2)c1 [Example 66, 2-{1-[(2-methylphenyl)methyl]-1H-imidazol-4-yl}-4-[5-(trifluoromethyl)-1H-1,2,3-triazol-4-yl]pyridine]
9 | 100 to 1000 nM | 1 to 10 µM | COc1ccc(Cn2cnc(-c3cc(-c4nn[nH]c4C(F)(F)F)ccn3)c2)cc1 [Example 67, 2-{1-[(4-methoxyphenyl)methyl]-1H-imidazol-4-yl}-4-[5-(trifluoromethyl)-1H-1,2,3-triazol-4-yl]pyridine]
10 | 100 to 1000 nM | > 10 µM | Fc1ccc(Cn2cnc(-c3cc(-c4nn[nH]c4C(F)(F)F)ccn3)c2)c(F)c1 [Example 68, 2-{1-[(2,4-difluorophenyl)methyl]-1H-imidazol-4-yl}-4-[5-(trifluoromethyl)-1H-1,2,3-triazol-4-yl]pyridine]
11 | 100 to 1000 nM | > 10 µM | Fc1cccc(F)c1Cn1cnc(-c2cc(-c3nn[nH]c3C(F)(F)F)ccn2)c1 [Example 69, 2-{1-[(2,6-difluorophenyl)methyl]-1H-imidazol-4-yl}-4-[5-(trifluoromethyl)-1H-1,2,3-triazol-4-yl]pyridine]
12 | 100 to 1000 nM | > 10 µM | Cc1cc(F)ccc1Cn1cnc(-c2cc(-c3nn[nH]c3C(F)(F)F)ccn2)c1 [Example 70, 2-{1-[(4-fluoro-2-methylphenyl)methyl]-1H-imidazol-4-yl}-4-[5-(trifluoromethyl)-1H-1,2,3-triazol-4-yl]pyridine]
13 | 100 to 1000 nM | > 10 µM | Cc1ccc(Cn2cnc(-c3cc(-c4nn[nH]c4C(F)(F)F)ccn3)c2)c(F)c1 [Example 71, 2-{1-[(2-fluoro-4-methylphenyl)methyl]-1H-imidazol-4-yl}-4-[5-(trifluoromethyl)-1H-1,2,3-triazol-4-yl]pyridine]
14 | 100 to 1000 nM | > 10 µM | FC(F)(F)c1[nH]nnc1-c1ccnc(-c2cn(Cc3ccccc3)cn2)c1 [Example 72, 2-(1-benzyl-1H-imidazol-4-yl)-4-[5-(trifluoromethyl)-1H-1,2,3-triazol-4-yl]pyridine]
15 | 100 to 1000 nM | > 10 µM | CC(c1ccccc1)n1cnc(-c2cc(-c3nn[nH]c3C(F)(F)F)ccn2)c1 (stereo not drawn) [Example 73, 2-[1-(1-phenylethyl)-1H-imidazol-4-yl]-4-[5-(trifluoromethyl)-1H-1,2,3-triazol-4-yl]pyridine]
16 | – | > 10 µM | CC(C)C(c1ccccc1)n1cnc(-c2cc(-c3nn[nH]c3C(F)(F)F)ccn2)c1 (stereo not drawn) [Example 75, 2-[1-(2-methyl-1-phenylpropyl)-1H-imidazol-4-yl]-4-[5-(trifluoromethyl)-1H-1,2,3-triazol-4-yl]pyridine]
17 | – | > 10 µM | Fc1cccc2c1CCCC2Cn1cnc(-c2cc(-c3nn[nH]c3C(F)(F)F)ccn2)c1 (stereo not drawn) [Example 99, 2-{1-[(5-fluoro-1,2,3,4-tetrahydronaphthalen-1-yl)methyl]-1H-imidazol-4-yl}-4-[5-(trifluoromethyl)-1H-1,2,3-triazol-4-yl]pyridine]

Row | SMILES | IC50 (Jarid1B) | IC50 (JMJD2C)
18 | CCOc1ccccc1CCn1cnc(-c2cc(-c3nn[nH]c3C(F)(F)F)ccn2)c1 [Example 59] | ≤ 100 nM | > 10 µM
19 | Fc1ccccc1Cn1cnc(-c2cc(-c3nn[nH]c3C(F)(F)F)ccn2)c1 [Example 62, 2-{1-[(2-fluoroprtenyl)methyl]-1H-imidazol-4-yl}-4-[5-(trifluoromethyl)-1H-1,2,3-triazol-4-yl]pyridine] | 100 to 1000 nM | > 10 µM
